According to patent publication US20230085686A1, “Multicompartement hydrogel fibre their preparation and uses thereof” (Association For The Advancement Of Tissue Engineering And …, priority 2020, published 2023):

System: Melanoma cells of the Sk-MEL-28 cell line
Assay: Drug test with doxorubicin in modular cancer/BM/stroma ribbon fibres, Calcein AM / Propidium Iodide viability
Type: cell-based, human
Conditions: 1 μM Doxorubicin, 24 h treatment
Excerpt: Melanoma cells of the Sk-MEL-28 (ATCC) cell line were encapsulated in the GG/GelMA compartment and human dermal fibroblasts (hDFs) were encapsulated in the GG compartment, both representing the cancer and stroma, respectively, separated by the basement-membrane-mimicking GelTrex/HA. […] In order to track the different cell types, these were stained with CellBrite Green and Orange (Biotium) according to the manufacturer's instructions. […] With this model, melanoma cells were included in the cancer compartment, and dermal fibroblasts within the stromal compartment, both separated by a GelTrex BM in a unique melanoma-on-a-fibre structure. Fibres with tracked cells were observed under an Inverted Confocal Laser Scanning Microscope (Leica), throughout one week of culture.
For the drug tests, fibroblasts were stained blue prior to encapsulation using CellTracker blue CMAC Dye (7-amino 4-chloromethylcoumarin, Molecular Probes) according to manufacturer's instructions. These were then integrated in the fibres together with the cancer cells, and all modular fibres were produced. 24 h after fabrication, fibres were incubated with either culture medium (no treatment) or culture medium containing 1 μM of Doxorubicin (Carbosynth). One day after treatment, samples were incubated with medium containing 1:1000 dilution of Calcein AM (Thermofisher) and 1 μg/mL Propidium Iodide (Molecular Probes) for 30 mins at 37° C., 5% CO2, for viability assessment. Images of the fibres were acquired in the Axio Observer inverted Microscope (Zeiss), and a cell profiler pipeline was used to derive the numbers of live and dead cells using the blue staining to distinguish fibroblasts from melanoma cells. Similarly, 2D controls were obtained by simply seeding the cells individually or in co-culture in 24 well-plates at a density of 20×10^3 cells per well (10×10^3 cells of each type in the case of co-cultures). 2D controls were then processed in the same way as the fibres. […]

COc1cccc2c1C(=O)c1c(O)c3c(c(O)c1C2=O)C[C@@](O)(C(=O)CO)C[C@@H]3O[C@H]1C[C@H](N)[C@H](O)[C@H](C)O1 [Doxorubicin]
cancer cell viability vs. the control (cancer-only fibres): significant drop in viability | cancer cell viability vs. the control (cancer/stroma fibres (no BM)): no longer significant | numbers of live cancer cells upon treatment (full cancer/BM/stroma fibres): numbers of live cancer cells can improve
